Laboratory results published in article PMC7011873, “LC-MS–MS and GC-MS analyses of biologically active extracts and fractions from Tunisian Juniperus phoenice leaves” (Pharmaceutical Biology, 2016).
pIC50: −log10 of the molar value.

Columns and labels:
[1] = DPPH radical-scavenging effect assay; conditions: 30 min incubation at room temperature, absorbance at 517 nm
Protocol: DPPH (1,1-diphenyl-2-picrylhydrazyl) radical-scavenging effect was evaluated following the procedure described in a previous study (Feki et al. [2005]). Various concentrations of extracts and fractions (5 μL) dissolved in methanol were added to 5 mL of a 0.004% methanol solution of DPPH. After a 30 min incubation period at room temperature, the absorbance was read against a blank at 517 nm. Inhibition of free radical, DPPH, in percent (I%) was calculated as follows: I% = (Ablank-Asample/Ablank)×100 where Ablank is the absorbance of the control reaction (containing all reagents except the studied sample) and Asample is the absorbance of the studied sample. Extract concentration providing 50% inhibition (IC50) was calculated from the graph plotted of inhibition percentage against extract concentration. The synthetic antioxidant reagents BHT and vitamin E were used as positive control and all tests were carried out in triplicate.

[2] = biological target: T1, porcine pancreatic α-amylase (PPA) (Sus scrofa, UniProt P00690); experiment: α-Amylase inhibition assay by CNPG3 method; format: biochemical
T1 construct: purchased Sigma-Aldrich (St. Louis, MO)
T1 sequence (P00690 16-511): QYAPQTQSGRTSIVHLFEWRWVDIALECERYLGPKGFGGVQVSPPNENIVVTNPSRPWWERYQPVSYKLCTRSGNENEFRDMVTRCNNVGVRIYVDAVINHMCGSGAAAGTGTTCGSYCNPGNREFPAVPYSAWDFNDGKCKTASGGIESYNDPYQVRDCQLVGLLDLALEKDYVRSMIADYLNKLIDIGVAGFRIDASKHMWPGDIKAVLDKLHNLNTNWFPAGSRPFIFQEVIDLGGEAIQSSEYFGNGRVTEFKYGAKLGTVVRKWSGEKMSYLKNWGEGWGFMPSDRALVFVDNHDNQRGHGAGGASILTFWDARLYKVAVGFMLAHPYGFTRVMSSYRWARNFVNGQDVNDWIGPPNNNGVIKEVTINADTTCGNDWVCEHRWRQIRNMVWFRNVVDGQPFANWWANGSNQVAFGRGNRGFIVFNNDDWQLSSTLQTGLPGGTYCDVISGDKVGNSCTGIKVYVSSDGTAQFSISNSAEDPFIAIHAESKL
Protocol: The studied sample was dissolved in DMSO to give concentrations of 50, 100, and 200 mg/mL. The enzyme solution was prepared by mixing α-amylase in 100 mL of 40 mM phosphate buffer, pH 6.9. The assays were measured by mixing 80 mL of the studied sample, 20 mL of α-amylase solution, and 1 mL of 2-chloro-4-nitrophenol-α-D-maltotrioside (CNPG3). The mixture was incubated at 37 °C for 5 min. The absorbance was measured at 405 nm spectrophotometrically (Jenway 6405 UV/Visible, Staffordshire, UK). […] Percentage inhibition was calculated by the following expression and all tests were carried out in triplicate: PI = [(AbsorbanceControl-AbsorbanceTest)/AbsorbanceControl] × 100

α-glucosidase = test system: α-glucosidase; set-up: method as in Kim et al. ([2000]); conditions: ref Kim et al. ([2000]); cited from earlier work

pIC50 [2]	Structure (SMILES)	DPPH IC50 [1] [µg/mL]	inhibitory activity against α-glucosidase (α-glucosidase)
4.42	O=c1cc(-c2ccc(O)c(-c3c(O)cc(O)c4c(=O)cc(-c5ccc(O)cc5)oc34)c2)oc2cc(O)cc(O)c12 [Amentoflavone]	14.1 ± 0.4	relatively important inhibitory activity
–	Cc1cc(C(C)(C)C)c(O)c(C(C)(C)C)c1 [BHT, butylate hydroxytoluene, reference compound]	18.1 ± 0.2	–
